In patent US20140275108A1, “NOVEL BENZENESULFONAMIDE COMPOUNDS, METHOD FOR SYNTHESIZING SAME, AND USE THEREOF IN MEDICINE AS WELL AS IN COSMETICS” (GALDERMA RESEARCH & DEVELOPMENT, priority 2013, published 2014):
Where two headings read alike, the source gives them in different places. Each block holds one molecule with its values, some of them ahead of it.

Tests used:
[1] = target: TACE enzyme (Homo sapiens, UniProt P78536); assay: Enzymatic assay for TACE inhibition (fluorescent substrate); assay type: biochemical
Chain of TACE enzyme (P78536 215-477): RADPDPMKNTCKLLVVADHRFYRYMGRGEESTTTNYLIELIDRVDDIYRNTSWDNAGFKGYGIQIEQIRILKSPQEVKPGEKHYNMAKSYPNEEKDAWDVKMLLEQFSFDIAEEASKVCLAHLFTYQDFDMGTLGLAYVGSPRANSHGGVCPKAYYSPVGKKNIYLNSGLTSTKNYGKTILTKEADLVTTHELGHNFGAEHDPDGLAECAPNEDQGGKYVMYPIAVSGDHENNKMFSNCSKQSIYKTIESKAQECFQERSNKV

[2] = target: MMP-12 (Homo sapiens, UniProt P39900); assay: Inhibition of MMPs, MMP-12; assay type: biochemical; conditions: Table 3, Example 30
Chain of MMP-12 (P39900 106-470): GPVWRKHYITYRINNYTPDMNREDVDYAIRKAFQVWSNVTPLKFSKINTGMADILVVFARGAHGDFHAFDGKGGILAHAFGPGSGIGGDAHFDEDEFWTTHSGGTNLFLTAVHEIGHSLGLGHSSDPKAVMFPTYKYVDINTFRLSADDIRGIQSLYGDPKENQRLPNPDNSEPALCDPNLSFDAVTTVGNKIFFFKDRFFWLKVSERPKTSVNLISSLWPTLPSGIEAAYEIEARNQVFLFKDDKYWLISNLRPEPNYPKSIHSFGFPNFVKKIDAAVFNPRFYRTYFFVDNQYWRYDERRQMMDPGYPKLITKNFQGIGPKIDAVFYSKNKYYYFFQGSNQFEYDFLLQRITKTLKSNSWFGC
Description: (§1) Several compounds were dose-response tested on TACE and MMP-1, MMP-3, and MMP-12 according to the same protocol as that described above.

[3] = test system: other MMPs; assay: Inhibition of other MMPs (data not shown); assay type: biochemical
Description: as §1

[4] = test system: TNFα; assay: Mouse ear edema model, TNFα secretion by ear skin cells; assay type: in vivo, Balb/c mouse; conditions: ear tissue biopsy, topical Day 1 to Day 7; FIG. 2A
Description: (§2) P. acnes stimulates the production of inflammatory cytokines, such as TNFα and interleukins. In this Example, the mouse ear edema model was used to investigate inflammation induced by P. acnes. This is a chronic inflammation model involving intense innate and adaptive immunity. The thickness of the ear is measured each day to determine the amount of swelling caused by P. acnes. The amount of TNFα and IL-6 secreted is determined.
(§3) After one intradermal injection of live P. acnes on Day 0, each of the following preparations was topically applied once a day on the ear of a Balb/c mouse over the course of 7 days (from Day 1 to Day 7). […]
(§4) Preparations 1-3 served as controls for comparison with preparations 4-7. […] The thickness of the ear was measured each day with a caliper from day 1 until day 8. The amount of TNFα and IL-6 secreted by the skin cells was determined using tissue biopsy samples from the mouse ear. TNF-α and Il-6 were measured using the mouse BD™ Cytometric Bead Array Flex (BD Bioscience, Dosage by FacsArray).

[5] = test system: edema induced by P. acnes; assay: Mouse ear edema model, cutaneous inflammation induced by P. acnes (ear thickness); assay type: in vivo, Balb/c mouse; conditions: topical on mouse ear, Day 1 to Day 7, after intradermal live P. acnes; Compound D 0.1%, 0.3%, 0.6% once a day, 0.6% twice a day; CD0153F 0.01% once a day; FIG. 1
Description: as §2, §3, §4

[6] = target: T1, MMP-3 (Homo sapiens, UniProt P08254); assay: Selectivity assay, MMP-3; assay type: biochemical; conditions: Table 3, Example 30
T1 construct: purchased Calbiochem
T1 sequence (P08254 100-477): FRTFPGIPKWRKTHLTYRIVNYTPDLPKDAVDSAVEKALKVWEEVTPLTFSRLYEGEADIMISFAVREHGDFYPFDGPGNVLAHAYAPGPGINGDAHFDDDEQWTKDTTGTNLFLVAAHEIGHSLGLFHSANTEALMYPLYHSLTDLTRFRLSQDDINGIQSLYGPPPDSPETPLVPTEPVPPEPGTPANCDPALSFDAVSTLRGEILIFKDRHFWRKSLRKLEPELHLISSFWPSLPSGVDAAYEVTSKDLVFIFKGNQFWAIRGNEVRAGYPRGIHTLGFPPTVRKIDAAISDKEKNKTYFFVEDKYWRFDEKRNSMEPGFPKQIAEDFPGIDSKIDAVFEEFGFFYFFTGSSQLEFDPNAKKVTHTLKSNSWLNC
Description: The enzymes are purchased from Calbiochem.
as §1

[7] = target: T2, MMP-1 (Homo sapiens, UniProt P03956); assay: Selectivity assay, MMP-1; assay type: biochemical; conditions: Table 3, Example 30
T2 construct: purchased Calbiochem
T2 sequence (P03956 100-469): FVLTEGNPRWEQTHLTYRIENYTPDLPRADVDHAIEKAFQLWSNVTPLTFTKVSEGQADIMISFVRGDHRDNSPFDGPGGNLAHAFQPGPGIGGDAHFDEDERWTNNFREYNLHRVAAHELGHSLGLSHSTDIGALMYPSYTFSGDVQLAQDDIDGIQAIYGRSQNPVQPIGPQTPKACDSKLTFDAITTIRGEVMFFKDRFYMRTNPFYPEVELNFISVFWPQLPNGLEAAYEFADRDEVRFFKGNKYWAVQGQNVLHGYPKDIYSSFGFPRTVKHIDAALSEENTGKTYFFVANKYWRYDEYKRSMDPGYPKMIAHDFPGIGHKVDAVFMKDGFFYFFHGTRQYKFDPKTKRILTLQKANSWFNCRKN

[8] = test system: IL-6; assay: Mouse ear edema model, IL-6 secretion by ear skin cells; assay type: in vivo, Balb/c mouse; conditions: ear tissue biopsy, topical Day 1 to Day 7; FIG. 2B
Description: as §2, §3, §4

[9] = Table 3, Example 30, read-out: TACE = ADAM 17 (IC50 nM)

SMILES: CCCCC(=O)O[C@]1(C(=O)CO)[C@@H](C)C[C@H]2[C@@H]3CCC4=CC(=O)C=C[C@]4(C)[C@@]3(F)[C@@H](O)C[C@@]21C [CD0153F, betamethasone valerate, reference compound]
secretion of TNFα induced by P. acnes [4]: inhibiting TNFα secretion
inhibition of edema (ear swelling) induced by P. acnes [5]: inhibition of inflammation

SMILES: Cc1cc(COc2ccc(S(=O)(=O)NC[C@@H](C(=O)NO)N3CCC(Cc4ccccc4)CC3)cc2)c2ccccc2n1 [C]
IC50 [1, 9]: 62 nM

SMILES: CC#CCOc1ccc(S(=O)(=O)N(C)CC(C(=O)NO)N2CCN(S(C)(=O)=O)CC2)cc1 (centres unmarked) [Example 1, 3-[(4-but-2-ynyloxybenzenesulfonyl)methylamino]-N-hydroxy-2-(4-methanesulfonylpiperazin-1-yl)propionamide]
% TACE inhibition at 10 μM [1]: 100%

SMILES: CN(C[C@@H](C(=O)NO)N1CCN(S(C)(=O)=O)CC1)S(=O)(=O)c1ccc(OCc2ccccc2)cc1 [Example 4, (S)-3-[(4-Benzyloxybenzenesulfonyl)methylamino]-N-hydroxy-2-(4-methanesulfonylpiperazin-1-yl)propionamide]
% TACE inhibition at 10 μM [1]: 95%
IC50 ([1]; Table 1, read-out: IC50 - TACE): 497 nM

More lines, main results first:

IC50 [1, 9]: 51 nM
IC50 [2]: 226 nM
SMILES: Cc1cc(COc2ccc(S(=O)(=O)NC[C@@H](C(=O)NO)N3CCOCC3)cc2)c2ccccc2n1 [B]
effect on other MMPs [3]: no effect

IC50 [2]: 977 nM
SMILES: Cc1cc(COc2ccc(S(=O)(=O)NC[C@@H](C(=O)NO)N3CCCCC3)cc2)c2ccccc2n1 [Compound A]
effect on other MMPs [3]: no effect

IC50 [1, 9]: 33 nM
IC50 [6]: 574 nM
IC50 [7]: 969 nM
SMILES: Cc1cc(COc2ccc(S(=O)(=O)NC[C@@H](C(=O)NO)N3CCC(S(=O)(=O)C(C)C)CC3)cc2)c2ccccc2n1 [Compound D]
secretion of TNFα induced by P. acnes [4]: greatly reduced
secretion of IL-6 induced by P. acnes [8]: moderately reduced
inhibition of edema (ear swelling) induced by P. acnes [5]: did not inhibit the edema
